Assay results from patent publication US4948807A, “Phenyl carbamates” (priority 1985, dated 1990).
pIC50: −log10 of the molar value. Like-named read-outs stand apart in the source and are kept apart here.

How the values were obtained:
acetylcholinesterase [1] = details: compared with the monoquaternary molecules; cited from earlier work
[2] = in vivo; cited from earlier work
[3] = eye drops; cited from earlier work
acetylcholinesterase [4] = biological target: T1, acetylcholinesterase (Mus musculus, UniProt P21836); assay: biochemical; assay type: biochemical
T1 construct: A solubilized preparation of acetylcholinesterase was prepared from mouse whole brain (minus cerebellum); from tissue; host or cells: mouse whole brain (minus cerebellum), membrane pellet solubilized with 1% Triton
T1 sequence (P21836 32-614): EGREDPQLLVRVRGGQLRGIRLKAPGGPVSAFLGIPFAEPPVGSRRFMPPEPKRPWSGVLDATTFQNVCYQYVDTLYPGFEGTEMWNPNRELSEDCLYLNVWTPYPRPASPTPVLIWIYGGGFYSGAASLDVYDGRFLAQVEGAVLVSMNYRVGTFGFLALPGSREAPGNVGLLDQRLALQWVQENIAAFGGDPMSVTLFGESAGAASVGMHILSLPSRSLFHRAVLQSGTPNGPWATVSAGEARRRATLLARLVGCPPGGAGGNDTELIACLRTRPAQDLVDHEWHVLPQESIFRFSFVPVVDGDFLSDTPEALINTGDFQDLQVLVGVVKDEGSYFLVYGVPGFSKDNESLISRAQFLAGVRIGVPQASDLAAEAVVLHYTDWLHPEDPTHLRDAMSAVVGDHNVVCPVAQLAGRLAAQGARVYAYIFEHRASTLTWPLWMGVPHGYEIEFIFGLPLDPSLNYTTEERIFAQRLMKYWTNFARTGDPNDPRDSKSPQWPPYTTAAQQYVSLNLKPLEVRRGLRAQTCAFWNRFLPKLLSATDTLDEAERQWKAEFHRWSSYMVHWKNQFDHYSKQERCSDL
Method: A solubilized preparation of acetylcholinesterase was prepared from mouse whole brain (minus cerebellum). The brain was homogenized with (100 mg/ml) phosphate buffer; pH 8.0, centrifuged, the supernatant discarded, and the pellet mixed with a similar volume as above of buffer pH 8.0 plus 1% Triton; mixed, centrifuged and the supernatant which contained most of the solubilized enzyme, was used for the subsequent determinations of anticholinesterase activity.
The activity of the enzyme (rate of hydrolysis of substrate, acetylthiocholine) was measured using at least 4 different concentrations of substrate, and at least 3 different concentrations of each inhibitor. The enzyme was incubated with inhibitor for periods ranging for 2-180 mins. at 37° C., substrate was then added, and its rate of hydrolysis measured by the spectrophotometric method of Ellman et al. (1961).

[5] = test system: brain acetylcholinesterase; details: for Relative potency to physostigmine after oral administration / % cholinesterase inhibition 3 hours after s.c. administration / Relative potency to physostigmine after subcut. (s.c.) administration: mouse brain; for Relative potency to physostigmine after oral administration / Relative potency to physostigmine after subcut. (s.c.) administration: physostigmine = 100
Method: The effect of each compound on brain acetylcholinesterase in vivo was measured, after subcutaneous or oral administration to mice. Animals were sacrificed, at different times ranging from 0.25-8 hours after drug administration. The brain was rapidly removed, and the enzyme acetylcholinesterase extracted and solubilized with 0.1% Triton, and its ability to hydrolyse acetylthiocholine assessed as described above (in vitro experiments), in comparison with the enzyme removed from mice injected with normal saline.

in vivo = details: mouse, in vivo
Method: Mice were given one of at least three different doses of each compound, orally or subcutaneously, a minimum of 10 mice allotted to each dose. The number of animals which died at each dose within 3 hours was determined.
This experiment was repeated after the animals had been pretreated with atropine sulphate, which blocks both peripheral and central muscarinic receptors.
What is important is the safety of the drugs and the presence and severity of side effects that may occur at therapeutic doses. A commonly-used measure of drug safety is the therapeutic index--or LD50 /ED50 [formula]
It is assumed that the therapeutic effect of these anticholinesterase agents results from an elevation of brain cholinergic activity. This in turn, should be related to the degree of inhibition of acetylcholinesterase. For the purpose of the computation of the denominator of the therapeutic ratio, there is used the dose of drug that inhibits the activity of acetylcholinesterase by 50%. […] The numerator is the dose found to kill 50% of the animals within […] of a subcutaneous injection.

[6] = cited from earlier work; for penetration of the central nervous system: in vivo; for absorption from the gastro-intestinal tract: oral
[7] = in vivo; cited from earlier work; remark: listed apart in the source
[8] = test system: respiratory depressant effects of morphine; assay type: in vivo; details: rabbits
Method: Different doses of the carbamate compounds were injected intravenously with morphine in rabbits Respiration rate, arterial blood gas tensions and pH were monitored continuously before and after drug administration for 4-5 hours. In another series of experiments the effect of the anticholinesterase drugs was assessed on the analgesic effect of opiates in rabbits after application of a nociceptive stimulus, i.e. electrical stimulation of the sciatic nerve.

[9] = test system: acetylcholinesterase in the cerebro-spinal fluid; details: patients with Alzheimer's disease; Thal et al. 1983; cited from earlier work
Huntingdon's chorea = details: injections; cited from earlier work
tardive dyskinesias = details: injected intravenously; cited from earlier work
[10] = incubation of enzyme with inhibitor, 37° C.
[11] = Ratio whose head is drawing 10 (Table 3; oral LD50 compared with s.c. LD50), mice, oral versus s.c.
[12] = sc, Therapeutic ratio LD50/ED50 s.c., mice, ED50 = dose inhibiting brain acetylcholinesterase by 50%

## CC[N+](CC)(CCNC(=O)C(=O)NCC[N+](CC)(CC)Cc1ccccc1Cl)Cc1ccccc1Cl [Ambenonium]
Acetylcholinesterase [1]
  selectivity for acetylcholinesterase over butyrylcholinesterase: more selective inhibitors of acetylcholinesterase than butyrylcholinesterase

## CN(CCCCCCCCCCN(C)C(=O)Oc1cccc([N+](C)(C)C)c1)C(=O)Oc1cccc([N+](C)(C)C)c1 [Demacarium]
Acetylcholinesterase [1]
  selectivity for acetylcholinesterase over butyrylcholinesterase: more selective inhibitors of acetylcholinesterase than butyrylcholinesterase

## CNC(=O)Oc1cccc(C(C)N(C)C)c1 (centres unmarked) [Miotine, reference compound]
[2]
  insecticidal activity: claimed to be an insecticide
[3]
  myopic activity: myopic agent
Acetylcholinesterase [4]
  pIC50: 7.89
Acetylcholinesterase [4]; [10]
  Time of peak activity: 30 min
[5]
  Relative potency to physostigmine after oral administration: 300
  % cholinesterase inhibition 3 hours after s.c. administration: 5%
  Relative potency to physostigmine after subcut. (s.c.) administration: 100
In vivo; [11]
  selectivity ratio: 1.2
In vivo; sc
  LD50 at 3 h: 4.5 µmol/kg
In vivo; [12]
  selectivity ratio: 4.9

## CNC(=O)Oc1ccc2c(c1)[C@]1(C)CCN(C)[C@@H]1N2C [Physostigmine, reference compound]
[6]
  penetration of the central nervous system: readily enters the brain
  absorption from the gastro-intestinal tract: irregular and unpredictable
[7]
  half-life: 20 to 40 min
Acetylcholinesterase [4]
  pIC50: 7.96
  Time of peak activity: 30 min
[8]; 0.1-0.2 mg/kg
  duration of antagonism of the respiratory depressant effect of morphine: 30 to 60 min
[8]; with morphine
  muscle fasciculations: fasciculations are marked at the higher dose
[5]; mouse, in vivo
  duration of significant brain enzyme inhibition (>30%): less than 2 hours
[9]
  block of acetylcholinesterase in cerebro-spinal fluid at dose giving maximum improvement in short term memory: 50%
In vivo; sc
  LD50 at 3 h: 3 µmol/kg
Huntingdon's chorea
  benefit in Huntingdon's chorea: some benefit
Tardive dyskinesias
  improvement of tardive dyskinesias: significant but short lived improvement in a proportion of patients

## CCCNC(=O)Oc1cccc(C(C)N(C)C)c1 (centres unmarked) [RA15, N-propyl-3[1-(dimethylamino)ethyl]phenyl carbamate]
Acetylcholinesterase [4]
  pIC50: 6.96
Acetylcholinesterase [4]; [10]
  Time of peak activity: 120 min
[8]; depending on drug and dose
  duration of significant antagonism of the respiratory depressant effects of morphine: 3 to 5 h
[5]; at ED50 dose
  duration of significant brain enzyme inhibition (>30%): more than 3 hours
[5]; comparison of Table 1 with Table 2
  relative in vivo activity compared to physostigmine versus in vitro data: relatively more active in vivo compared to physostigmine than one would expect from the in vitro data
[5]
  Relative potency to physostigmine after oral administration: 32
  % cholinesterase inhibition 3 hours after s.c. administration: 37%
  Relative potency to physostigmine after subcut. (s.c.) administration: 33
[5]; parenteral administration, in words
  duration of brain acetylcholinesterase inhibition compared with physostigmine or miotine: significantly longer duration
In vivo; Degree of protection afforded by pretreatment with atropine, ratio of LD50 after pretreatment with atropine sulphate 5 mg/kg to LD50 of drug alone
  selectivity ratio: 4.1
In vivo; [11]
  selectivity ratio: 4.5
In vivo; sc
  LD50 at 3 h: 31 µmol/kg
In vivo; [12]
  selectivity ratio: 11.1

## CN(C)C(=O)Oc1cccc([N+](C)(C)C)c1 [neostigmine]
[6]
  penetration of the central nervous system: do not penetrate the central nervous system to any significant extent
  absorption from the gastro-intestinal tract: only poorly absorbed from the gastro-intestinal tract

## CN(C)C(=O)Oc1ccc[n+](C)c1 [pyridostigmine]
[6]
  penetration of the central nervous system: do not penetrate the central nervous system to any significant extent
  absorption from the gastro-intestinal tract: only poorly absorbed from the gastro-intestinal tract
